The values below come from US10196357B2, “Biaryl compositions and methods for modulating a kinase cascade” (Athenex, Inc., priority 2007, dated 2019).

Where two headings read alike, the source gives them in different places. A value given as a limit tells only on which side of the number the result lay.

Test [1] relates to c-Src 3T3 cells. Nature of the test: BrdU cell growth inhibition, c-Src 3T3. Format: cell-based, mouse. The conditions noted are these: for GI50: c-Src 3T3 (c-Src527F/NIH3T3) cells; for activity at 0.1 µM / activity at 1 µM / activity at 10 µM: NIH3T3, read-out: c-Src 3T3 Growth, % of Control Mean, n = 3; for activity at 0.1 µM: 100 nM. The procedure: (§1) The GI50s for several of the compounds of the invention were assayed as described herein.
The cells were routinely cultured in DMEM supplemented with Fetal Bovine Serum (2.0% v/V), L-glutamine (2 mM) and Sodium Pyruvate (1 mM).
(§2) In the BrdU Assay for cell growth inhibition, quantitation of cell proliferation was based on the measurement of BrdU incorporation during DNA synthesis. The Cell Proliferation ELISA BrdU assay kit (colorimetric) was obtained from Roche Applied Science and performed as per vendor instructions.
(§3) The growth inhibition (GI) is determined from the formula GI=(T0−Tn×100/T0−CONn) where T0 is the BrdU growth of untreated cells at time “0”, Tn is the BrdU growth of treated cells at day “n” and CONn is the control BrdU growth of control cells at day “n”. The GI50 was extrapolated and the data plotted using XL-Fit 4.0 software.
(§4) For 96 well culture plate experiments, c-Src 3T3 medium was supplemented with 10 mM HEPES buffer. HT-29 cells were seeded in standard tissue culture 96-well plates and c-Src 3T3 cells were seeded in 96-well plates coated with Poly-D-lysine (BIOCOAT™). To increase CO2 diffusion, c-Src 3T3 96-well plates were incubated with their lids raised by ˜2 mm using sterile rubber caps.
(§5) Samples were reconstituted in DMSO at 20 mM and intermediate dilutions made using DMEM containing 10% FBS. […] Plates were assayed for BrdU and the data analyzed as above for GI50.
(§6) All compounds were initially prepared as 20 mM DMSO stock solutions and then diluted into buffer for the in vitro tumor growth assays. NG means no cell growth beyond the control and T means the number of cells in the drug treated wells was less than in the control (i.e. net cell loss).

Test [2] concerns HT29 cell line. Description: BrdU cell growth inhibition, HT29. Format: cell-based, human. The conditions noted are these: for activity at 0.05 µM / activity at 0.5 µM / activity at 5 µM: HT-29, read-out: HT-29 Growth, % of Control Mean, n = 3; for activity at 0.05 µM: 50 nM; for activity at 0.5 µM: 500 nM. As to the method:
as §1
The HT29 cell line is a NCI standard human colon carcinoma cell line.
as §2, §3, §4, §5, §6
Growth Inhibition. […] T1 values≤T0 values were designated as T, cytotoxicity.

Setting [3] is: Homo sapiens, HT-29, HT29 (Colon) cells, read-out: GI50.

`O=C(Cc1ccc(-c2ccc(OCCCN3CCOCC3)cc2)cn1)NCc1cccc(F)c1` [KX2-383]: the GI50 in test [1] (Mus musculus, read-out: GI50) stood at 0.327 µM; in test [2] (setting [3]), 0.248 µM.
As for `O=C(Cc1ccc(-c2ccccc2)cc1)Nc1cccc(F)c1` [KX1-308, N-(3-fluorophenyl)-4-biphenylacetamide], in test [1] (Mus musculus), the activity at 0.1 µM was found to be 94.5%, the activity at 1 µM was 77.7% and the activity at 10 µM came to 67.1%. Further, in test [2] (Homo sapiens), the activity at 0.05 µM amounted to 87.9%, the activity at 0.5 µM stood at 76.1% and the activity at 5 µM was determined as 32.3%.
In the case of `CCOc1ccc(-c2ccc(CC(=O)NCc3cc(F)cc(OCCN4CCCCC4)c3)nc2)cc1` [KX2-380], in test [1] (Mus musculus), the activity at 0.1 µM was found to be 124%, the activity at 1 µM turned out to be 119% and the activity at 10 µM was less than 0%. Besides, in test [2] (Homo sapiens), the activity at 0.05 µM stood at 100%, the activity at 0.5 µM came out at 50% and the activity at 5 µM was less than 0%.
For `CCOc1ccc(-c2ccc(CC(=O)NCc3cc(F)cc(OCCN4CCOCC4)c3)nc2)cc1` [KX2-378], in test [1] (Mus musculus), the activity at 0.1 µM came to 122%, the activity at 1 µM was determined as 107% and the activity at 10 µM is 48%. Moreover, in test [2] (Homo sapiens), the activity at 0.05 µM is 88%, the activity at 0.5 µM was 61% and the activity at 5 µM is less than 0%.
For the molecule `CN1CCN(CCOc2ccc(-c3ccc(CC(=O)NCc4cccc(F)c4)nc3)cc2)CC1` [KX2-365], in test [1] (Mus musculus), the activity at 0.1 µM was determined as 88%, the activity at 1 µM was less than 0% and the activity at 10 µM is less than 0%. Besides, the GI50 in test [1] (Mus musculus, read-out: GI50) was determined as 0.133 µM. The GI50 in test [2] (setting [3]) is 0.093 µM. In test [2] (Homo sapiens), the activity at 0.05 µM was determined as 88%, the activity at 0.5 µM was less than 0% and the activity at 5 µM is less than 0%.
Regarding `CC(C)COc1cc(F)cc(CNC(=O)Cc2ccc(-c3ccc(OCCN4CCN(C)CC4)cc3)cn2)c1` [KX2-367], in test [1] (Mus musculus), the activity at 0.1 µM amounted to 102%, the activity at 1 µM was less than 0% and the activity at 10 µM was less than 0%. In addition, in test [2] (Homo sapiens), the activity at 0.05 µM was found to be 64%, the activity at 0.5 µM stood at 6% and the activity at 5 µM is less than 0%.
Consider `CN1CCN(CCOc2cc(OC3CCOCC3)c3c(Nc4c(Cl)ccc5c4OCO5)ncnc3c2)CC1` [AZD0530, reference compound], for which the GI50 turned out to be 0.203 µM in test [1] (Mus musculus, read-out: GI50) and 0.33 µM in test [2] (setting [3]).
Consider `CCOc1ccc(-c2ccc(CC(=O)NCc3cccc(F)c3)nc2)c(OCCN2CCCCC2)c1` [KX2-389], for which the values for the 50% growth inhibitory concentration (GI50) result in test [1] and in test [2] (HT29 (Colon) cells) were “Inactive” and “inactive”, respectively.
In the case of `CCOc1ccc(-c2ccc(CC(=O)NCc3cccc(F)c3)c[n+]2[O-])cc1` [KX1-358, 2-[6-(4-Ethoxy-phenyl)-1-oxo-pyridin-3-yl]-N-(3-fluoro-benzyl)-acetamide], in test [1] (Mus musculus), the activity at 0.1 µM was 92.2%, the activity at 1 µM is 91.4% and the activity at 10 µM amounted to 82.7%.
On to `O=C(Cc1ccc(-c2ccc(N3CCCCC3)cc2)cn1)NCc1cccc(F)c1` [KX2-372], for which, in test [1] (Mus musculus), the activity at 0.1 µM is less than 0%, the activity at 1 µM was less than 0% and the activity at 10 µM was less than 0%. The GI50 in test [1] (Mus musculus, read-out: GI50) was determined as 0.058 µM. Besides, the 50% growth inhibitory concentration (GI50) in test [2] (setting [3]) amounted to 0.067 µM. For the same molecule, in test [2] (Homo sapiens), the activity at 0.05 µM is less than 0%, the activity at 0.5 µM was less than 0% and the activity at 5 µM was less than 0%.
Consider `O=C(Cc1ccc(-c2ccccc2)nc1)NCc1cccc(F)c1` [KX1-314, N (3-fluorobenzyl)-2-phenylpyridine-5-acetamide], for which, in test [1] (Mus musculus), the activity at 0.1 µM amounted to 93.6%, the activity at 1 µM turned out to be 88.4% and the activity at 10 µM was determined as 39.3%. Further, in test [2] (Homo sapiens), the activity at 0.05 µM turned out to be 53.2%, the activity at 0.5 µM was 83.7% and the activity at 5 µM worked out at 14.4%.
On to `O=C(Cc1ccc(-c2ccccc2)c[n+]1[O-])NCc1cccc(F)c1` [KX1-329 N-oxide], for which the GI50 result in test [1] and in test [2] (HT29 (Colon) cells) was “inactive (c-Src 3T3); inactive (HT-29)” throughout.
For `O=C(Cc1ccc(-c2ccncc2)cc1)NCc1cccc(F)c1` [KX1-327], in test [1] (Mus musculus), the activity at 0.1 µM was 81.3%, the activity at 1 µM was less than 0% and the activity at 10 µM is less than 0%. For the same molecule, in test [1] (Mus musculus, read-out: GI50), the GI50 was more than 0.2 µM. For the same molecule, the concentration for 50% growth inhibition (GI50) in test [2] (setting [3]) is 0.68 µM. In test [2] (Homo sapiens), the activity at 0.05 µM worked out at 31.6%, the activity at 0.5 µM was less than 0% and the activity at 5 µM is less than 0%.
With `O=C(Cc1ccc(-c2cc[n+]([O-])cc2)cc1)NCc1cccc(F)c1` [KX1-357], in test [1] (Mus musculus), the activity at 0.1 µM was 101%, the activity at 1 µM is 95.4% and the activity at 10 µM amounted to 9%.
For the molecule `CN1CCN(CCCOc2ccc(-c3ccc(CC(=O)NCc4cccc(F)c4)nc3)cc2)CC1` [KX2-390], the concentration for 50% growth inhibition (GI50) in test [1] (Mus musculus, read-out: GI50) amounted to 0.797 µM; in test [2] (setting [3]) it was 0.868 µM.
With `CCOc1ccc(-c2ccc(CC(=O)NCc3cccc(F)c3)nc2)c(OCCN2CCN(C)CC2)c1` [KX2-384], the GI50 is 1.43 µM in test [1] (Mus musculus, read-out: GI50) and “inactive” in test [2] (HT29 (Colon) cells).
With `O=C(Cc1ccc(-c2cccc(F)c2)nc1)NCc1cccc(F)c1` [KX1-321, N-(3-Fluoro-benzyl)-2-[6-(3-fluoro-phenyl)-pyridin-3-yl]-acetamide], in test [1] (Mus musculus), the activity at 0.1 µM came to 95.5%, the activity at 1 µM turned out to be 96.2% and the activity at 10 µM was determined as 55.8%. Further, in test [2] (Homo sapiens), the activity at 0.05 µM came out at 127%, the activity at 0.5 µM stood at 118% and the activity at 5 µM came out at 23.7%.
For `CC(C)COc1cc(F)cc(CNC(=O)Cc2ccc(-c3ccc(OCCN4CCCCC4)cc3)cn2)c1` [KX2-386], the GI50 in test [1] (Mus musculus, read-out: GI50) was 0.897 µM; in test [2] (HT29 (Colon) cells), “inactive”.
For `CC(C)COc1cc(F)cc(CNC(=O)Cc2ccc(-c3ccc(CN4CCCCC4)cc3)cn2)c1` [KX2-366], in test [1] (Mus musculus), the activity at 0.1 µM is 103%, the activity at 1 µM was 83% and the activity at 10 µM is less than 0%. Moreover, in test [2] (Homo sapiens), the activity at 0.05 µM came to 89%, the activity at 0.5 µM is 54% and the activity at 5 µM was less than 0%.
In the case of `O=C(Cc1ccc(-c2ccc(OCCCN3CCCCC3)cc2)cn1)NCc1cccc(F)c1` [KX2-374], in test [1] (Mus musculus), the activity at 0.1 µM stood at 110%, the activity at 1 µM came out at 84% and the activity at 10 µM was less than 0%. For the same molecule, in test [2] (Homo sapiens), the activity at 0.05 µM was 74%, the activity at 0.5 µM worked out at 57% and the activity at 5 µM is less than 0%.
For the molecule `O=C(Cc1ccc(-c2cccnc2)cc1)NCc1cccc(F)c1` [KX1-316], in test [1] (Mus musculus), the activity at 0.1 µM worked out at 88.2%, the activity at 1 µM was less than 0% and the activity at 10 µM was less than 0%. The GI50 in test [1] (Mus musculus, read-out: GI50) is more than 0.2 µM. In addition, in test [2] (Homo sapiens), the activity at 0.05 µM turned out to be 77.8%, the activity at 0.5 µM turned out to be 45.1% and the activity at 5 µM was less than 0%.
For `O=C(Cc1ccc(-c2ccccn2)cc1)NCc1cccc(F)c1` [KX1-315, N-(3-Fluoro-benzyl)-2-(4-pyridin-2-yl-phenyl)-acetamide], in test [1] (Mus musculus), the activity at 0.1 µM came to 89.3%, the activity at 1 µM came to 88.1% and the activity at 10 µM was less than 0%. For the same molecule, in test [2] (Homo sapiens), the activity at 0.05 µM was found to be 66%, the activity at 0.5 µM was 50.3% and the activity at 5 µM was less than 0%.
As for `O=C(Cc1ccc(-c2ccc(F)cc2)cc1)NCc1cccc(F)c1` [KX1-311, N-(3-fluorobenzyl)-4-(4-fluorophenyl)phenylacetamide], in test [1] (Mus musculus), the activity at 0.1 µM came to 81.3%, the activity at 1 µM is less than 0% and the activity at 10 µM is less than 0%. Besides, in test [2] (Homo sapiens), the activity at 0.05 µM stood at 60.4%, the activity at 0.5 µM is less than 0% and the activity at 5 µM is less than 0%.
On to `CN1CCN(Cc2ccc(-c3ccc(CC(=O)NCc4cccc(F)c4)nc3)cc2)CC1` [KX2-376], for which, in test [1] (Mus musculus), the activity at 0.1 µM was less than 0%, the activity at 1 µM is less than 0% and the activity at 10 µM is less than 0%. Moreover, in test [1] (Mus musculus, read-out: GI50), the 50% growth inhibitory concentration (GI50) is more than 1.6 µM. Moreover, the GI50 in test [2] (setting [3]) was more than 0.4 µM. In test [2] (Homo sapiens), the activity at 0.05 µM stood at 96%, the activity at 0.5 µM was determined as 93% and the activity at 5 µM is less than 0%.
On to `O=C1[O][Pt]2([NH][C@@H]3CCCC[C@H]3[NH]2)[O]C1=O` [oxaliplatin, reference compound], for which the GI50 in test [2] (HT29 (Colon) cells, read-out: GI50) came to 1.48 µM.
With `CC(C)COc1cc(F)cc(CNC(=O)Cc2ccc(-c3ccc(CN4CCN(C)CC4)cc3)cn2)c1` [KX2-385], the 50% growth inhibitory concentration (GI50) in test [1] (Mus musculus, read-out: GI50) amounted to 0.232 µM.
